Laboratory results from patent US20110262555A1, “METHODS AND COMPOSITIONS FOR REDUCING OR PREVENTING VASCULAR CALCIFICATION DURING PERITONEAL DIALYSIS THERAPY” (BAXTER INTERNATIONAL INC., priority 2010, published 2011).
Like-named read-outs stand apart in the source and are kept apart here.

What was measured:
[1] = system: APOe-KO/CRF mouse model of vascular calcification; conditions: for total aortic calcium content, effect on CRF-induced elevation: daily intraperitoneal, 8 weeks
Description: Homozygous apolipoprotein E knockout (apoE^−/−) mice were housed in polycarbonate cages in a pathogen-free, temperature-controlled (25° C.) room with a strict 12-hour light/dark cycle and with free access to lab chow and water. All procedures were in accordance with National Institutes of Health (“NIH”) guidelines for the care and use of experimental animals (NIH publication No. 85-23).
A 2-step procedure was used to create CRF in the mice at 10 weeks of age. Briefly, at age of 8 weeks, cortical electrocauterisation was applied to the right kidney through a 2-cm flank incision and contralateral total nephrectomy was performed through a similar incision 2 weeks later. Other mice underwent a 2-step procedure of sham operations with decapsulation of both kidneys with a 14-day distance between the two operations. Blood samples were taken 2 weeks after nephrectomy, and intra-peritoneal catheters were implanted at this time.
At the end of the study, the heart with the aortic root was then separated from ascending aorta. Cryosections of the aortic root tissue were used for quantification of vascular calcification and were used to assess atherosclerotic lesions at the site of the root. The thoracic part of the aorta was stored at −80° C. and used for quantification of calcium content.
Mice having high LDL will develop atherosclerosis. Those with the added partial nephrectomy will develop kidney impairment and were expected to produce marked vascular calcification of the heart and aorta, thus mimicking the disease seen in many dialysis patients. All groups were treated in a manner to mimic a peritoneal dialysis therapy, with a peritoneal dialysis solution either in the absence of PPi (sham and CRF placebo control groups) or containing two different doses of PPi (as outlined above).
Next, a method was employed whereby morphological image processing algorithms were used for the semi-automated measurement of calcification from sections of aorta stained using von Kossa's silver nitrate procedure (FIGS. 3A and 3B). These were acquired at low magnification power on color images. The process was separated into two sequential phases: 1) segmentation to separate the calcification structures and demarcate the region of the atherosclerotic lesion within the tissue, and 2) the quantification. Calcified structures were measured inside and outside the lesion using a granulometric curve that allows the calculation of statistical parameters of size.

[2] = system: female rats; conditions: for diaphragmatic inflammation, severity grade / thickness of the diaphragm section involved by inflammation: 7 days intraperitoneal
Description: A maximum tolerated dose study was conducted according to the study design in Table 3. Solutions that were administered were made up of a dextrose concentrate or a modified dextrose concentrate and a buffer concentrate or a modified buffer concentrate mixed in a 3:1 ratio (dextrose:buffer). Each test or control article was administered intraperitoneally once daily for 7 consecutive days to each of five different female rats at volumes of 40 mL/kg via a butterfly needle as a bolus injection. Necropsy was performed one day after the last dose.
Tissue samples of the diaphragms from all rats were trimmed, processed, embedded in paraffin, and sectioned. Hematoxylin and eosin stained slides were prepared and examined by light microscopy. Microscopic observations were subjectively graded based on the relative severity of the change: Grade 1=minimal, Grade 2=mild, Grade 3=moderate, grade 4=marked.

Row | Structure (SMILES) | total aortic calcium content, effect on CRF-induced elevation ([1]; 30 μM PPi in dialysis solution) | total aortic calcium content, effect on CRF-induced elevation ([1]; 150 μM PPi in dialysis solution) | aortic root calcification inside the atherosclerotic lesion (von Kossa) ([1]; high dose PPi (150 μM)) | aortic root calcification outside the lesion (von Kossa) ([1]; high dose PPi (150 μM)) | aortic root calcification outside the lesion (von Kossa) ([1]; low dose PPi (30 μM)) | inhibition of aortic root calcification inside the atherosclerotic lesion (von Kossa) ([1]; low dose PPi (30 μM)) | diaphragmatic inflammation, severity grade ([2]; 600 μM) | thickness of the diaphragm section involved by inflammation ([2]; 600 μM) | diaphragmatic inflammation, severity grade ([2]; 900 μM) | thickness of the diaphragm section involved by inflammation ([2]; 900 μM) | concentration producing chronic inflammation of the peritoneal surface of the diaphragm (local effect) ([2]; intraperitoneal, 7 consecutive days, 40 mL/kg/day, rats)
1 | O=P(O)(O)OP(=O)(O)O [pyrophosphate] | moderate reduction, that was not statistically significant | completely blocked the effect of CRF on elevation of aortic calcium | completely prevented the elevation due to CRF | totally blocked | totally blocked | approximately 50% | – | – | – | – | –
2 | O=P([O-])([O-])OP(=O)(O)O.[Na+].[Na+] [disodium pyrophosphate] | – | – | – | – | – | – | mild (Grade 2) | 5-25% | mild in 1 rat and moderate in 4 of 5 rats | up to 50% | ≥ 600 µM
